Experimental data from US20230241229A1, “A SAPOGENIN POLYETHYLENE GLYCOL ESTER COMPLEX OF FORMULA-I, A COMPOSITION, PROCESS OF PREPARATION, AND APPLICATIONS THEREOF” (PHYTOSOL INDIA PRIVATE LIMITED, priority 2020, published 2023).

Experiment: Solubility of the compositions by adding water
Format: physicochemical
Conditions: component weight 100 mg
Experimental: Solubility of the Compositions I, II and III are determined by adding water to the composition and control curcumin (without the Diosgenin polyethylene glycol succinate).

Water in ml require to solubilize: >1000 mL
Compound: COc1cc(/C=C/C(=O)CC(=O)/C=C/c2ccc(O)c(OC)c2)ccc1O [Control, Curcumin]
